In ChEMBL document CHEMBL3638654, “5-HT3 receptor modulators, methods of making, and use thereof” (2015) one finds Ki data, which are given here for 2 compounds.

In this assay the target is T1, 5-hydroxytryptamine receptor 3A (Homo sapiens, UniProt P46098).
T1 sequence (P46098 whole entry): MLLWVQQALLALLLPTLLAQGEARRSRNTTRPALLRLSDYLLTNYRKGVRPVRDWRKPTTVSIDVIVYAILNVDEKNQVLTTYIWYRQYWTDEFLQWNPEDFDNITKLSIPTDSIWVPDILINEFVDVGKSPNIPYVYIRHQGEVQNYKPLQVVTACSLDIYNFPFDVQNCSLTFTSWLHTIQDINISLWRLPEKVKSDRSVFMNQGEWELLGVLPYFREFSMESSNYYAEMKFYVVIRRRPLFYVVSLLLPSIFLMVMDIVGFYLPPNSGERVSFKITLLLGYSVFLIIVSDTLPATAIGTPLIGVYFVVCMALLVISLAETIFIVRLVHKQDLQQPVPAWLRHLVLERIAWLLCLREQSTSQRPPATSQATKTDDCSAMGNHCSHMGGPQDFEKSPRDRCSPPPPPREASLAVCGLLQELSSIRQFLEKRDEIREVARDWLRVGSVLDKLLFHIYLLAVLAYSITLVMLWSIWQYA
Description: Radioligand Binding Assay: The relative affinity of the various compounds for the human 5-HT3 receptor was measured in a radioligand binding assay, using a scintillation proximity assay (SPA) format. Test compounds were dissolved to 10 mM in 100% DMSO, then serially diluted at 10x assay concentrations in 100% DMSO in 96-well polypropylene plates and further diluted to 4x assay concentrations with the assay buffer. Samples were incubated in 50 mM Tris-HCl, pH 7.5, 3 mM MgCl2, 1 mM EDTA and 10% DMSO with 10 nM [9-methyl-3H]BRL-43694 (Perkin Elmer), 3 ug of human 5-HT3 receptor membranes (Perkin Elmer) and 0.5 mg/mL SPA beads (WGA PVT, Amersham Biosciences) in a final volume of 0.2 mL. Binding reactions were set up in wells of PicoPlates-96 (Perkin Elmer) by adding consecutively 50 uL of each competing compound or buffer, SPA beads, the radioligand and 5-HT3 receptor membranes. After an overnight incubation at room temperature on a Nutator mixer, plates were centrifuged for 15 min at 1,500 rpm. A general note: Scintillation proximity formats need no separation of bound from free tracer.

“And” between values parts separate entries of the source, which are not always exact repeats. Equal entries are not always repeated.

For the compound `O=C1c2cccc3[nH]nc(c23)CN1CC1CN2CCC1CC2` (configuration not stated), the inhibition constant Ki (in general, a measure of affinity in units of concentration, obtained from inhibition or displacement) is 217 nM and 24 nM.

Take `O=C1c2cccc3[nH]nc(c23)CCN1CC1CN2CCC1CC2` (configuration not stated): the Ki is 579 nM and 241 nM.
